# Measured values reported in US7723384B2, “Keto lactam compounds and use thereof” (Abbott GmbH & Co. KG., priority 2003, dated 2010).
# Structures can show the parent of a compound that is named as a salt.
# Key:
# [1] = molecular target: T1, human dopamine D3 receptors (Homo sapiens, UniProt P35462); test: Dopamine D3 receptor binding, displacement of [125I]-iodosulpride; settings: membranes from HEK-293 cells with stably expressed human D3 receptors, 0.1 nM [125I]-iodosulpride
# T1 construct: expressed in transfected cells; membranes)
# Method: (§1) The substance to be tested was dissolved either in methanol/Chremophor® (BASF-AG) or in dimethyl sulfoxide and then diluted with water to the desired concentration.
# (§2) Triplicate mixtures were carried out.
# The incubation buffer comprised 50 mM Tris, 120 mM NaCl, 5 mM KCl, 2 mM CaCl2, 2 mM MgCl2 and 0.1% bovine serum albumin, 10 μM quinolone, 0.1% ascorbic acid (prepared fresh each day). The buffer was adjusted to pH 7.4 with HCl.
# (§3) III. Measurement and Evaluation:
# (§4) After incubation at 25° C. for 60 minutes, the mixtures were filtered under vacuum through Whatman GF/B glass fiber filters using a cell harvester. The filters were transferred by a filter transfer system into scintillation vials. After addition of 4 ml of Ultima Gold® (Packard), the samples were shaken for one hour and then the radioactivity was counted in a beta counter (Packard, Tricarb 2000 or 2200CA). The cp values were converted into dpm by means of a standard quench series with the aid of the instrument's own program.
# (§5) Evaluation of the inhibition plots took place by iterative nonlinear regression analysis using the Statistical Analysis System (SAS) similar to the “LIGAND” program described by Munson and Rodbard.
# [2] = molecular target: T2, human dopamine D2L receptors (long isoform) (Homo sapiens, UniProt P14416); test: Dopamine D2L receptor binding, displacement of [125I]-iodospiperone; settings: ratio Ki(D2L)/Ki(D3); HEK-293 membranes with human D2L and D3 receptors
# T2 construct: expressed in transfected cells; membranes)
# Method: as §1
# II. Dopamine D2L Receptor:
# as §2
# The incubation buffer comprised 50 mM Tris, 120 mM NaCl, 5 mM KCl, 2 mM CaCl2, 2 mM MgCl2 and 0.1% bovine serum albumin. The buffer was adjusted to pH 7.4 with HCl.
# as §3, §4, §5
# T1 sequence (P35462 whole entry): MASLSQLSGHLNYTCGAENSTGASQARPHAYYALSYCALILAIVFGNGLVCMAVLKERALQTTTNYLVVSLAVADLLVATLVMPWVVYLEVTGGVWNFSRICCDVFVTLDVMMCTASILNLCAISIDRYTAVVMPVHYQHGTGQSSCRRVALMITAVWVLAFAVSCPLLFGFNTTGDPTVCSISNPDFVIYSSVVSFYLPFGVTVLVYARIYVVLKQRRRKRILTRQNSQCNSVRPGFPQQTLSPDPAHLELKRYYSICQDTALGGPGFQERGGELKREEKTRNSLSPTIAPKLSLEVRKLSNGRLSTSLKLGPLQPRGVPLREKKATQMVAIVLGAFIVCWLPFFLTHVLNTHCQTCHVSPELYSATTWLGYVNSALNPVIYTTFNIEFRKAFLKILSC
# T2 sequence (P14416 whole entry, canonical isoform): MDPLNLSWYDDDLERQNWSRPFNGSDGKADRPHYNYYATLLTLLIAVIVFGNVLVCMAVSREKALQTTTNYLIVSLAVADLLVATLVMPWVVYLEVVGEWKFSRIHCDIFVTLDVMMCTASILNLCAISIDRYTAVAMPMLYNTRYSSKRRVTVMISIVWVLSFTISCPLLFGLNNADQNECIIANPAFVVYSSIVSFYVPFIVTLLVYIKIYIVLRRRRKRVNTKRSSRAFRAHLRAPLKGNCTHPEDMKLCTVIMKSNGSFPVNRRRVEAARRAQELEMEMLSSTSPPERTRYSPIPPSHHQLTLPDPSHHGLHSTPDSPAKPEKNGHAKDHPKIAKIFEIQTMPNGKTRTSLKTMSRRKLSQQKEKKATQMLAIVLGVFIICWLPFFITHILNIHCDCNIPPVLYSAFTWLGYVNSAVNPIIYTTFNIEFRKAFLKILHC
Ki [1] [nM],Selectivity vs. D2L (Ki(D2L)/Ki(D3)) [2],SMILES
2,56,"O=C1CCC(=O)N(CCCCN2CCN(c3cc(Cl)cc(Cl)c3)CC2)c2ccccc21 [Example 86, 1-{4-[4-(3,5-Dichlorophenyl)-2,5-piperazin-1-yl]butyl}-3,4-dihydro-1H-benzo[b]azepine-2,5-dione fumarate]"
0.96,62,"CC(C)(C)c1nc(C2CC2)cc(N2CCN(CCCCN3C(=O)CCC(=O)c4ccccc43)CC2)n1 [Example 16, 1-{4-[4-(2-tert-Butyl-6-cyclopropylpyrimidin-4-yl)piperazin-1-yl]butyl}-3,4-dihydro-1H-benzo[b]azepine-2,5-dione]"
1.24,74,"CC(C)(C)c1cc(N2CCN(CCCCN3C(=O)CCC(=O)c4ccccc43)CC2)nc(C(C)(C)C)n1.Cl [Example 10, 1-{4-[4-(2,6-Di-tert-butylpyrimidin-4-yl)piperazin-1-yl]butyl}-3,4-dihydro-1H-1-benzazepine-2,5-dione hydrochloride]"

# Second part, the compound before the results:
SMILES,Ki [1] [nM],Selectivity vs. D2L (Ki(D2L)/Ki(D3)) [2]
"CC(C)(C)c1nc(N2CCN(C/C=C/CN3C(=O)CCC(=O)c4ccccc43)CC2)cc(C(F)(F)F)n1 [Example 4, 1-((2E)-4-{4-[2-tert-Butyl-6-(trifluoromethyl)pyrimidin-4-yl]piperazin-1-yl}but-2-enyl)-3,4-dihydro-1H-1-benzazepine-2,5-dione]",1.74,155
"O=C(O)/C=C/C(=O)O.O=C1CCC(=O)N(CCCCN2CCN(c3cc(C(F)(F)F)cc(C(F)(F)F)c3)CC2)c2ccccc21 [Example 87, 1-{4-[4-(3,5-Bis(trifluoromethyl)phenyl)piperazin-1-yl]butyl}-3,4-dihydro-1H-benzo[b]azepine-2,5-dione fumarate]",7.4,129
"CCCc1cc(N2CCN(CCCCN3C(=O)CCC(=O)c4ccccc43)CC2)nc(C(C)(C)C)n1.Cl [Example 7, 1-{4-[4-(2-tert-Butyl-6-propylpyrimidin-4-yl)piperazin-1-yl]butyl}-3,4-dihydro-1H-1-benzazepine-2,5-dione hydrochloride]",1.33,118
"COc1cc2c(cc1OC)N(CCCCN1CCN(c3cc(C(F)(F)F)nc(C(C)(C)C)n3)CC1)C(=O)CCC2=O [Example 6, 1-(4-{4-[2-tert-Butyl-6-(trifluoromethyl)pyrimidin-4-yl]piperazin-1-yl}butyl)-7,8-dimethoxy-3,4-dihydro-1H-1-benzazepine-2,5-dione]",4.5,104
